Reference: US20070225213A1, “Nucleic acid carriers for delivery of therapeutic agents” (priority 2006, published 2007)

Tests used:
BHK21 = test: Effect of plating time on uptake of NAC-MTN and MTN, fluorescence (Example 11); format: cell-based, hamster
Procedure: The effect of plating time on the differential rates of uptake between NAC-MTN and MTN were assayed in cells treated <1 hour and 24 hours after plating.
On day 1, MCF7, COS7, 3T3, and BHK21 cells were plated out in a standard tissue culture plate. After incubation of 20 minutes samples were added to cells in rows A, C, E, and G. Cells were incubated at 37C in a standard atmosphere of 5%CO2.
On day 2, samples were added to rows D, F, and H and the fluorescence was obtained EX620/EM680 S=80. Samples were removed from A,C,E and G, replaced with media and fluorescence read again. On day 2 observed significant drug toxicity in cells of rows A,C, E, G. Sample addition was postponed in row B since MCF7 were not yet confluent.
On day 3, added samples to cells in row B containing confluent MCF7's, removed samples from rows D, F, and H replaced with media and read fluorescence.
Fluorescence data from cells taken after removal of media was used to quantitate total MTN retained in the cells. Fluorescence data were converted to mg/ml MTN using a standard curve prepared with free MTN or NAC-MTN.
The percentage difference in fluorescence between cells treated with NAC-MTN or MTN alone was used to compare relative drug uptake.
The MTN fluorescence ratios were obtained by dividing MTN fluorescence of cells incubated for 24 hours by fluorescence of cells incubated 30 minutes. […] The uptake in BHK21 was roughly equivalent for NAC-MTN regardless of plate adherence, however it should be noted that BHK21 adhere very rapidly to the plate.
Fluorescence data were converted to micromolar drug concentrations (uM MTN) using a standard curve for either nucleic acid bound or unbound drug, and drug uptake ratios were obtained by dividing the t(24 hour)/t(30 min.). The ratios of absolute drug concentration per well show more dramatic differences in uptake as shown below.

COS7 = test: Cell uptake by MTN fluorescence EX620/EM680 (Examples 10 and 13, EX051605); format: cell-based, green monkey; conditions: 10% w/w loading in DNA
Procedure: Materials: HSGDNA, MTN, ODNAS1116 (phosphorothioated, single stranded DNA, and Beta-cyclodextrin polymer (BCD-SBE, KKBIOMED Inc.) were previously prepared in water at 10 mg/ml, 1 mg/ml, 0.95 mg/ml, and 10 mg/ml respectively.
Procedure: For NAC-MTN, combined 37 ul HSGDNA (herring genomic DNA, Promega Inc.), 1426 ul HBSS( Hank's buffered saline, Sigma-Aldrich), with 37 ul of MTN, followed by 1500 ul 2× DMEM media to give 3 ml final and 24 uM (24 micro-molar) MTN and 10% w/w drug loading of MTN. For NAC-MTN (AR1505) combined 62 ul of HSDNA (deg. herring sperm DNA, Sigma) with 2377 ul HBSS, 61.7 ul MTN, 2500 ul 2× media to give 5 ml final and 24 uM MTN and 10% w/w drug loading of MTN to HSDNA. […]
Plate#1 Media was aspirated and cells treated with 100 ul of either NAC-MTN, CD-MTN, or MTN at 24 uM MTN final or 12.3 ug/ml MTN in all samples. Samples containing MTN were incubated 4 hours, removed, and fluorescence taken at EX620/EM680. […]
Samples were incubated 4 hours, removed, and MTN fluorescence taken at EX620/EM680. […] Average MTN fluorescence was averaged from 6 wells. For each cell type, MTN fluorescence was highest in MTN treated cells, followed by CD-MTN, and lowest in NAC-MTN. […]
PLATE#2: Dispensed 50 ul from source plate into plate #2 to give 150 ul final vol 4.1 ug/ml, 8 uMfinal per well, pre-read fluorescence w samples (bkgd) incubated 5 hr, removed, replaced w/ media, read fluor. […]

In the case of `O=C1c2c(O)ccc(O)c2C(=O)c2c(NCCNCCO)ccc(NCCNCCO)c21` [MTN, mitoxantrone], the “MTN FLUOR Ratio of t(24)/t(<1)” value (BHK21) is reported as 0.73, the “FLUOR (MTN fluorescence in cells)” value (BHK21; cells treated 24 hour after plating) is reported as 10746 and the “FLUOR (MTN fluorescence in cells)” value (BHK21; cells treated <1 hour after plating) is reported as 9557. For the same molecule, the “Ratio uM MTN of t(24)/t(<1)” value (BHK21; from standard curve for bound or unbound drug) was 1.2, the “% reduction in fluorescence relative to MTN alone (MTN = 0%)” value (COS7; Plate#1, 24 uM MTN, 4 hours) was 0% and the “% reduction in fluorescence relative to MTN alone (MTN = 0%)” value (COS7; Plate#2, 8 uM MTN) was 0%.
